Experimental findings from patent US10858360B2, “Tricyclic gyrase inhibitors” (priority 2011, dated 2020) are described below.

One assay concerns S. aureus ATCC 13709. In words: MIC, S. aureus ATCC 13709 (Alamar Blue broth microdilution). Type of assay: cell-based. The note with it: Alamar Blue read after overnight incubation at 35° C.; for MIC Sa: S. aureus; for MIC: Staphylococcus aureus, ATCC13709, S. aureus.
Another assay deals with E. coli ATCC 25922. In words: MIC, E. coli ATCC 25922. The class given is cell-based. The note with it: Alamar Blue read after overnight incubation at 35° C.; for MIC Ec: E. coli; for MIC: Escherichia coli, ATCC25922, E. coli.

≈ marks a conversion by molar mass, not a printed value.

Regarding `CNc1cc(F)cc2c1[nH]c1nc(Oc3ccc4c(c3)C(=O)NCC4)nc(N3CC4C(N)C4C3)c12` (stereo not shown) [4.301], in the assay with S. aureus ATCC 13709, the “MIC Sa” value is ≤0.5 µg/mL. The “MIC Ec” value in the assay on E. coli ATCC 25922 came out at 1 µg/mL (≈ 2.11 µM).

In the case of `CNc1cc(F)cc2c1[nH]c1nc(Oc3ccc4c(c3)C(=O)NCC4)nc(N3CC4C[C@@H](N)C4C3)c12` (stereo partly shown) [4.302], the results for the minimum inhibitory concentration (MIC) in the assay on S. aureus ATCC 13709 and with E. coli ATCC 25922 were ≤ 0.5 µg/mL and 2 µg/mL (≈ 4.1 µM), respectively.

Regarding `CNc1cc(F)cc2c1[nH]c1nc(Oc3cncc(C)c3)nc(N3CC4CC(N)C4C3)c12` (stereo not shown) [4.303], the MIC in the assay on S. aureus ATCC 13709 and against E. coli ATCC 25922 was ≤ 0.5 µg/mL in each case.

Turning to `CCCc1ncc(Oc2nc(N3C[C@H](N)C4(CC4)C3)c3c(n2)[nH]c2c(NC)cc(F)cc23)cn1` [4.304], the minimal inhibitory concentration (MIC) with S. aureus ATCC 13709 and in the assay on E. coli ATCC 25922 was ≤ 0.5 µg/mL throughout.

As to `CNc1cc(F)cc2c1[nH]c1nc(Oc3cnc4c(c3)OC=CO4)nc(N3C[C@H](N)C4(CC4)C3)c12` [4.305], in the assay with S. aureus ATCC 13709, the “MIC Sa” value is ≤0.5 µg/mL. For the same molecule, the “MIC Ec” value in the assay with E. coli ATCC 25922 was 1 µg/mL (≈ 2.1 µM).

`CNc1cc(F)cc2c1[nH]c1nc(Oc3ccc(C(C)=O)nc3)nc(N3CC4CCNC4C3)c12` (stereo not shown) [4.309]: the “MIC Sa” value against S. aureus ATCC 13709 is ≤0.5 µg/mL. In addition, in the assay on E. coli ATCC 25922, the “MIC Ec” value is ≤0.5 µg/mL.

For the molecule `CNc1cc(F)cc2c1[nH]c1nc(Oc3cnc4[nH]cnc4c3)nc(N3CC4CC(N)C4C3)c12` (stereo not shown) [4.310], the MIC was 8 µg/mL (≈ 17.4 µM) in the assay on S. aureus ATCC 13709 and > 16 µg/mL in the assay with E. coli ATCC 25922.

With `CNc1cc(F)cc2c1[nH]c1nc(Oc3cnc4[nH]cnc4c3)nc(N3CC4C(N)C4C3)c12` (stereo not shown) [4.311], the MIC in the assay on S. aureus ATCC 13709 is 4 µg/mL (≈ 8.98 µM); with E. coli ATCC 25922, > 16 µg/mL.

For `CNc1cc(F)cc2c1[nH]c1nc(Oc3cnc4[nH]cnc4c3)nc(N3CC4CCNC4C3)c12` (stereo not shown) [4.312], the MIC in the assay on S. aureus ATCC 13709 is 16 µg/mL (≈ 34.8 µM); in the assay on E. coli ATCC 25922, > 16 µg/mL.

In the case of `CNc1cc(F)cc2c1[nH]c1nc(Oc3cnc4[nH]cnc4c3)nc(N3C[C@H](N)C4(CC4)C3)c12` [4.313], the “MIC Sa” value against S. aureus ATCC 13709 is 8 µg/mL (≈ 17.4 µM). For the same molecule, the “MIC Ec” value against E. coli ATCC 25922 was >16 µg/mL.

`CNc1cc(F)cc2c1[nH]c1nc(Oc3cnc(C(C)(C)C)nc3)nc(N3CC4C(N)C4C3)c12` (stereo not shown) [4.314]: the MIC against S. aureus ATCC 13709 and in the assay with E. coli ATCC 25922 was ≤ 0.5 µg/mL in each case.

For `CNc1cc(F)cc2c1[nH]c1nc(Oc3cnc(C(C)(C)C)nc3)nc(N3C[C@H](N)C4(CC4)C3)c12` [4.315], the MIC in the assay with S. aureus ATCC 13709 and with E. coli ATCC 25922 was ≤ 0.5 µg/mL throughout.

As for `CNc1cc(F)cc2c1[nH]c1nc(Oc3cnc(C(C)(C)C)nc3)nc(N3CCC4CNC4C3)c12` (stereo not shown) [4.317], the MIC in the assay on S. aureus ATCC 13709 was ≤ 0.5 µg/mL; in the assay with E. coli ATCC 25922, 2 µg/mL (≈ 4.2 µM).

Consider `CNc1cc(F)cc2c1[nH]c1nc(Oc3cnc(C(C)(C)C)nc3)nc(N3CC[C@@H](N)C3)c12` [4.319], for which the MIC in the assay on S. aureus ATCC 13709 and in the assay with E. coli ATCC 25922 was ≤ 0.5 µg/mL throughout.

In the case of `CNc1cc(F)cc2c1[nH]c1nc(Oc3ccc4ncsc4c3)nc(N3C[C@H]4CC[C@@H](N)[C@H]4C3)c12` [4.320], the MIC in the assay with S. aureus ATCC 13709 was ≤ 0.5 µg/mL; against E. coli ATCC 25922, 1 µg/mL (≈ 2.04 µM).

With `CNc1cc(F)cc2c1[nH]c1nc(Oc3ccc4sc(C)nc4c3)nc(N3CC4CCC(N)C4C3)c12` (stereo not shown) [4.322], the “MIC Sa” value against S. aureus ATCC 13709 was ≤0.5 µg/mL. The “MIC Ec” value with E. coli ATCC 25922 is ≤0.5 µg/mL.

Turning to `CNc1cc(F)cc2c1[nH]c1nc(Oc3cnc(C#N)c(C)c3)nc(N3CC4CC(N)C4C3)c12` (stereo not shown) [4.323], in the assay on S. aureus ATCC 13709, the “MIC Sa” value is ≤0.5 µg/mL. Also, the “MIC Ec” value against E. coli ATCC 25922 is 1 µg/mL (≈ 2.18 µM).

For `CNc1cc(F)cc2c1[nH]c1nc(Oc3cnc(C#N)c(C)c3)nc(N3C[C@H](N)C4(CC4)C3)c12` [4.324], in the assay on S. aureus ATCC 13709, the “MIC Sa” value was ≤0.5 µg/mL. In addition, in the assay with E. coli ATCC 25922, the “MIC Ec” value is ≤0.5 µg/mL.

In the case of `CNc1cc(F)cc2c1[nH]c1nc(Oc3cnc(C#N)c(C)c3)nc(N3CC4(CC[C@H]4N)C3)c12` [4.326], the MIC against S. aureus ATCC 13709 and against E. coli ATCC 25922 was ≤ 0.5 µg/mL in each case.

For `CNc1cc(F)cc2c1[nH]c1nc(Oc3cnc4c(ccn4C)c3)nc(N3CC4CC(N)C4C3)c12` (stereo not shown) [4.328], the MIC is ≤ 0.5 µg/mL in the assay on S. aureus ATCC 13709 and 1 µg/mL (≈ 2.12 µM) in the assay with E. coli ATCC 25922.

On to `CNc1cc(F)cc2c1[nH]c1nc(Oc3ccc(C#N)nc3)nc(N3C[C@H](N)C4(CC4)C3)c12` [4.329], for which, in the assay on S. aureus ATCC 13709, the “MIC Sa” value is ≤0.5 µg/mL. Besides, the “MIC Ec” value in the assay on E. coli ATCC 25922 is ≤0.5 µg/mL.

Take `CNc1cc(F)cc2c1[nH]c1nc(Oc3ccc(C#N)nc3)nc(N3CC4CCNC4C3)c12` (stereo not shown) [4.330]: the “MIC Sa” value in the assay with S. aureus ATCC 13709 is ≤0.5 µg/mL. The “MIC Ec” value with E. coli ATCC 25922 is ≤0.5 µg/mL.

Regarding `CNc1cc(F)cc2c1[nH]c1nc(Oc3ccc(C#N)nc3)nc(N3CCC(N)C3)c12` (stereo not shown) [4.331], the “MIC Sa” value in the assay with S. aureus ATCC 13709 is ≤0.5 µg/mL. For the same molecule, the “MIC Ec” value in the assay with E. coli ATCC 25922 is ≤0.5 µg/mL.

As for `CNc1cc(F)cc2c1[nH]c1nc(Oc3ccc(C#N)nc3)nc(N3CC4CC(N)C4C3)c12` (stereo not shown) [4.332], the “MIC Sa” value against S. aureus ATCC 13709 was ≤0.5 µg/mL. Moreover, in the assay on E. coli ATCC 25922, the “MIC Ec” value is ≤0.5 µg/mL.

Regarding `CNc1cc(F)cc2c1[nH]c1nc(Oc3ccc(C#N)nc3)nc(N3CC4(CCC4N)C3)c12` (stereo not shown) [4.333], the “MIC Sa” value in the assay on S. aureus ATCC 13709 is ≤0.5 µg/mL. Further, in the assay on E. coli ATCC 25922, the “MIC Ec” value is ≤0.5 µg/mL.

As for `CNc1cc(F)cc2c1[nH]c1nc(Oc3ccc(C#N)nc3)nc(N3CCC4(C[C@H]4N)C3)c12` (stereo partly shown) [4.334], the “MIC Sa” value in the assay on S. aureus ATCC 13709 was ≤0.5 µg/mL. Also, the “MIC Ec” value against E. coli ATCC 25922 is 8 µg/mL (≈ 18 µM).

As for `CNc1cc(F)cc2c1[nH]c1nc(Oc3ccc4sc(N)nc4c3)nc(N3C[C@H]4CC[C@@H](N)[C@H]4C3)c12` [4.335], the MIC in the assay on S. aureus ATCC 13709 was ≤ 0.5 µg/mL; in the assay with E. coli ATCC 25922, 4 µg/mL (≈ 7.93 µM).

As to `CNc1cc(F)cc2c1[nH]c1nc(Oc3ccc4oc(C)nc4c3)nc(N3C[C@H]4CC[C@@H](N)[C@H]4C3)c12` [4.336], the values for the MIC in the assay on S. aureus ATCC 13709 and in the assay on E. coli ATCC 25922 were ≤ 0.5 µg/mL and 1 µg/mL (≈ 2.05 µM), respectively.

On to `CNc1cc(F)cc2c1[nH]c1nc(Oc3cnc(N4CC(S(=O)(=O)CC5CC5)C4)nc3)nc(N3CC4C(N)C4C3)c12` (stereo not shown) [4.337], for which, in the assay with S. aureus ATCC 13709, the “MIC Sa” value was ≤0.5 µg/mL. Besides, the “MIC Ec” value with E. coli ATCC 25922 was found to be 1 µg/mL (≈ 1.73 µM).

For `CNc1cc(F)cc2c1[nH]c1nc(Oc3cnc(N4CC(S(=O)(=O)CC5CC5)C4)nc3)nc(N3C[C@H](N)C4(CC4)C3)c12` [4.338], the “MIC Sa” value with S. aureus ATCC 13709 is ≤0.5 µg/mL. Further, in the assay on E. coli ATCC 25922, the “MIC Ec” value was 2 µg/mL (≈ 3.37 µM).

As to `CNc1cc(F)cc2c1[nH]c1nc(Oc3cnc(N4CC(C)(N)C4)nc3)nc(N3CC4C(N)C4C3)c12` (stereo not shown) [4.339], the “MIC Sa” value against S. aureus ATCC 13709 was ≤0.5 µg/mL. The “MIC Ec” value with E. coli ATCC 25922 was determined as 1 µg/mL (≈ 2.04 µM).

In the case of `CNc1cc(F)cc2c1[nH]c1nc(Oc3cnc(N4CC(C)(N)C4)nc3)nc(N3C[C@H](N)C4(CC4)C3)c12` [4.340], in the assay with S. aureus ATCC 13709, the “MIC Sa” value came to 1 µg/mL (≈ 1.98 µM). Besides, the “MIC Ec” value in the assay on E. coli ATCC 25922 turned out to be 2 µg/mL (≈ 3.96 µM).

Take `CNc1cc(F)cc2c1[nH]c1nc(Oc3cnc(N4CC(C)(N)C4)nc3)nc(N3CCC4(C[C@@H]4N)C3)c12` (stereo partly shown) [4.341]: the “MIC Sa” value with S. aureus ATCC 13709 is ≤0.5 µg/mL. Also, the “MIC Ec” value in the assay with E. coli ATCC 25922 was 1 µg/mL (≈ 1.98 µM).

With `CNc1cc(F)cc2c1[nH]c1nc(Oc3cnc4ccc[n+]([O-])c4c3)nc(N3CC4(CCC4N)C3)c12` (stereo not shown) [4.342], the “MIC Sa” value against S. aureus ATCC 13709 was ≤0.5 µg/mL. Further, the “MIC Ec” value against E. coli ATCC 25922 came out at 4 µg/mL (≈ 8.22 µM).

As for `CNc1cc(F)cc2c1[nH]c1nc(Oc3cnc(COC)nc3)nc(N3CC(N)C4(CC4)C3)c12` (stereo not shown) [4.343], in the assay with S. aureus ATCC 13709, the “MIC Sa” value is ≤0.5 µg/mL. For the same molecule, the “MIC Ec” value in the assay on E. coli ATCC 25922 was ≤0.5 µg/mL.

For `CNc1cc(F)cc2c1[nH]c1nc(Oc3cnc(COC)nc3)nc(N3CC4CC(N)C4C3)c12` (stereo not shown) [4.344], the results for the MIC against S. aureus ATCC 13709 and in the assay on E. coli ATCC 25922 were ≤ 0.5 µg/mL and 2 µg/mL (≈ 4.31 µM), respectively.

In the case of `CNc1cc(F)cc2c1[nH]c1nc(Oc3cnc(N4CCCC4=O)nc3)nc(N3CC4C(N)C4C3)c12` (stereo not shown) [4.345], the MIC was ≤ 0.5 µg/mL against S. aureus ATCC 13709 and 2 µg/mL (≈ 4.09 µM) against E. coli ATCC 25922.

As for `CNc1cc(F)cc2c1[nH]c1nc(Oc3cnc(N4CCCC4=O)nc3)nc(N3C[C@H](N)C4(CC4)C3)c12` [4.346], the figures for the MIC in the assay with S. aureus ATCC 13709 and with E. coli ATCC 25922 were ≤ 0.5 µg/mL and 4 µg/mL (≈ 7.94 µM), respectively.
